What was measured:
[1] = tested on: PCSK9; assay: Pulse-chase metabolic labeling and immunoprecipitation of PCSK9-related proteins in Huh7 cells; format: cell-based, human; conditions: Huh7 pre-incubated 24 h with 5 μM Q3G
Description: For metabolic labeling, Huh7 cells were seeded in a 12-well plate 8×10^5 cells/well in 1.5 ml/well of complete medium and incubated overnight. After a rinse with Dulbecco's PBS (PBS-D), cell monolayers were overlaid with 1.5 ml of DMEM/10% LPDS without or with 5 μM Q3G, and were incubated for 24 h. Fresh serum-free medium (SFM, 1.5 ml) was substituted, and cells were allowed to incubate for 30 min to reduce endogenous Met and Cys. The medium was removed and replaced with fresh SFM (0.75 ml/well) containing 300 μCi/ml^35S-Met/Cys, and cells were incubated at 37° C. for 20 min to label de novo biosynthesized proteins (pulse-labeling). The radioactive medium was replaced with DMEM/0.5% LPDS containing 10 mM non-radioactive Met/Cys and cells were incubated at 37° C. for 0, 15, 30, 60, 90 and 120 min (chase). Conditioned media and cell lysates were processed as described above.
Radioactive conditioned media or cell lysates (0.1 ml) were supplemented with […] of normal rabbit serum and 15 μl of a 50% (w/v) suspension of Protein A-agarose. After a 1-h incubation at 4° C. with rotational mixing, the samples were centrifuged at 3,000 g for 5 min at 4° C. Supernatants were supplemented 2 μl of rabbit anti-PCSK9 [35], and incubated as above. […] Specific radioactive protein bands were visualized and quantified on a Typhoon Phosphorimager (Molecular Dynamics). […]

[2] = tested on: Huh7 cells; assay: LDL uptake assay with bodipy-LDL; format: cell-based, human; conditions: Huh7, 5 μM Q3G for 24 h
Description: Huh7 cells were seeded in 96-well black-bottom plates at 4×10^4 cells/well in 0.1 ml complete medium and allowed to attach by overnight incubation at 37° C. They were rinsed with PBS-D, overlaid with 0.1 ml of DMEM/10% LPDS and incubated at 37° C. for 24 h. After a PBS-D rinse, they were overlaid with 0.1 ml DMEM/0.5% LPDS containing or not 5 μM Q3G and incubated 37° C. for 24 h. To assay for LDL uptake ability, cells were rinsed, first with pre-warmed (37° C.) PBS-D, then with pre-warmed DMEM/0.5% LPDS. They were overlaid with 75 μl of the latter medium containing […] bodipy-LDL, and then incubated at 37° C. for 15 min or 30 min to allow LDLR-mediated endocytosis of the fluorescent lipoprotein. […] Intracellular fluorescence was measured in a SpectraMax Gemini XS fluorescence plate reader (Molecular Devices) at the excitation and emission wavelengths of 485 and 535 nm, respectively. Non-specific fluorescence was measured by incubating cells in medium containing bodipy-LDL (20 μg/ml) and a 12.5× excess of non-fluorescent LDL (250 μg/ml).
To verify this prediction, cells were incubated overnight in medium supplemented with LPDS to promote expression of the LDLR; they were then treated with 5 μM Q3G for 24 h and exposed to fluorescent bodipy-LDL for 15 or 30 min; after washing, accumulated intracellular LDL was measured by fluorescence spectrometry.

[3] = tested on: LDLR; assay: Immunoblotting for LDLR in MIN6 β-cells; format: cell-based, mouse
Description: The corresponding photographs of the immunoblotting results are also shown. MIN6 cells were incubated for 24 h in the presence of 16 μM Q3G. Cell lysates were analyzed by semi-quantitative immunoblotting using different antibodies successively.
Mouse insulinoma MIN6 cells were cultured in a 5% CO2-95% air atmosphere at 37° C. in DMEM medium containing 10% heat-inactivated fetal bovine serum, 1 mM Na-pyruvate, 2 mM L-glutamine, 25 mM D-glucose, and 28 μM β-mercaptoethanol. Q3G at a specific final concentration was supplemented to the culture medium and incubation was conducted for a selected length of time. Media were collected, spun at 600 g to sediment suspended cells, supplemented with 0.5 volumes of 3×RIPA-PIC (1×: 50 mM Tris-HCl, pH 8, 150 mM NaCl, 1% NP-40, 0.5% Na-deoxycholate and 0.1% SDS and PIC). Cells were lysed in 1×RIPA-PIC for immuno-blotting, or in RNA extraction buffer for qRT-PCR.
Cell lysates were fractionated by SDS-PAGE and electrophoretically transferred onto a polyvinylidene fluoride membrane. […] The signal was captured on X-ray film and immunoreactive bands analyzed by densitometry on a Syngene's ChemiGenius^2XE Bio Imaging System (Cambridge, Mass.) within the dynamic range of the instrument. […]

[4] = dogs, meal supplement; cited from earlier work

O=c1c(O[C@@H]2O[C@H](CO)[C@@H](O)[C@H](O)[C@H]2O)c(-c2ccc(O)c(O)c2)oc2cc(O)cc(O)c12 [Q3G, quercetin-3-O-β-D-glucoside]
rate of intracellular proPCSK9 precursor processing versus untreated cells [1]: no obvious difference | time to half-maximum accumulation of PCSK9 in culture media (percent of total PCSK9 proteins) ([1]; control cells 60 min): 90 min | accumulated intracellular LDL versus untreated cells ([2]; bodipy-LDL for 15 min): 4 fold | accumulated intracellular LDL versus untreated cells ([2]; bodipy-LDL for 30 min): 2.5 fold | amount of cell-surface LDL-receptor versus untreated MIN6 β-cells ([3]; MIN6, 24 h, 16 μM Q3G): approximately 1.4 times | relative amount of LDLR protein compared with mRNA ([3]; MIN6, Q3G-treated): in concordance with the relative amounts of mRNA | quercetin bioavailability versus quercetin aglycone and rutin [4]: significantly greater
